Assay results: US7531320B2, “Modulation of β-catenin/TCF-activated transcription” (priority 2003, dated 2009)

Key:
[1] = target: T1, p300/β-catenin complex (Homo sapiens, UniProt Q09472); assay: Co-immunoprecipitation of β-catenin with p300 in SW480 cells; type: cell-based; conditions: p300 (1-111), (1-211), (1-351), 50 μM COMPOUND 1
T1 construct: endogenous in cells; host or cells: SW480
Procedure: (§1) FIG. 3. COMPOUND 1 disrupts the β-catenin/CBP complex but not the p300/β-catenin complex. • A. Full-length Xenopus laevis β-catenin (1.1, 2.2, and 3.3 μg) or murine CBP (0.14, 0.28, 0.55, 1.1, and 2.2 μg) plasmids were cotransfected in SW480 cells along with the β-catenin/TCF (1.1 μg) reporter gene construct. Empty pcDNA3 vector was used to equalize the amount of DNA used in each reaction. Dual luciferase assays were performed 24 hours post COMPOUND 1 treatment. All experiments were performed in duplicate and values plotted as means +/−standard deviation. • B. COMPOUND 1 competes with β-catenin for CBP. SW480 cells were treated with 5 or 10 μM of COMPOUND 1 or control (0.5% DMSO). 24 hours post treatment, lysates were incubated with beads coated with either control the antibody, or anti-CBP, or anti-p300 antibodies. Co-immunoprecipitated proteins were subjected to gel electrophoresis and immunoblotting using anti-β-catenin antibodies. The arrows point to the immunoprecipitated β-catenin (doublets). • C. CBP (1-111) is the minimal region of interaction with β-catenin. SW480 cells transfected with a CBP deletion series were subjected to immunoprecipitation using anti-β-catenin antibodies coated on Protein A-agarose beads. The immune complexes were washed and subjected to gel electrophoresis followed by immunoblotting using anti-His antibodies. […]
T1 sequence (Q09472 1-111, one chain of several): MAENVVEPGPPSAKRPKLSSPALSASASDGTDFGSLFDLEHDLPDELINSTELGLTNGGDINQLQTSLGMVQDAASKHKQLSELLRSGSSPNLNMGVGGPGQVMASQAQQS

[2] = target: T2, p300/β-catenin complex (Homo sapiens, UniProt Q09472); assay: as above; type: cell-based; conditions: SW480 cells, 5 or 10 μM, 24 hours
T2 construct: endogenous in cells; host or cells: SW480
Procedure: as §1
T2 sequence (Q09472 2-2414, one chain of several): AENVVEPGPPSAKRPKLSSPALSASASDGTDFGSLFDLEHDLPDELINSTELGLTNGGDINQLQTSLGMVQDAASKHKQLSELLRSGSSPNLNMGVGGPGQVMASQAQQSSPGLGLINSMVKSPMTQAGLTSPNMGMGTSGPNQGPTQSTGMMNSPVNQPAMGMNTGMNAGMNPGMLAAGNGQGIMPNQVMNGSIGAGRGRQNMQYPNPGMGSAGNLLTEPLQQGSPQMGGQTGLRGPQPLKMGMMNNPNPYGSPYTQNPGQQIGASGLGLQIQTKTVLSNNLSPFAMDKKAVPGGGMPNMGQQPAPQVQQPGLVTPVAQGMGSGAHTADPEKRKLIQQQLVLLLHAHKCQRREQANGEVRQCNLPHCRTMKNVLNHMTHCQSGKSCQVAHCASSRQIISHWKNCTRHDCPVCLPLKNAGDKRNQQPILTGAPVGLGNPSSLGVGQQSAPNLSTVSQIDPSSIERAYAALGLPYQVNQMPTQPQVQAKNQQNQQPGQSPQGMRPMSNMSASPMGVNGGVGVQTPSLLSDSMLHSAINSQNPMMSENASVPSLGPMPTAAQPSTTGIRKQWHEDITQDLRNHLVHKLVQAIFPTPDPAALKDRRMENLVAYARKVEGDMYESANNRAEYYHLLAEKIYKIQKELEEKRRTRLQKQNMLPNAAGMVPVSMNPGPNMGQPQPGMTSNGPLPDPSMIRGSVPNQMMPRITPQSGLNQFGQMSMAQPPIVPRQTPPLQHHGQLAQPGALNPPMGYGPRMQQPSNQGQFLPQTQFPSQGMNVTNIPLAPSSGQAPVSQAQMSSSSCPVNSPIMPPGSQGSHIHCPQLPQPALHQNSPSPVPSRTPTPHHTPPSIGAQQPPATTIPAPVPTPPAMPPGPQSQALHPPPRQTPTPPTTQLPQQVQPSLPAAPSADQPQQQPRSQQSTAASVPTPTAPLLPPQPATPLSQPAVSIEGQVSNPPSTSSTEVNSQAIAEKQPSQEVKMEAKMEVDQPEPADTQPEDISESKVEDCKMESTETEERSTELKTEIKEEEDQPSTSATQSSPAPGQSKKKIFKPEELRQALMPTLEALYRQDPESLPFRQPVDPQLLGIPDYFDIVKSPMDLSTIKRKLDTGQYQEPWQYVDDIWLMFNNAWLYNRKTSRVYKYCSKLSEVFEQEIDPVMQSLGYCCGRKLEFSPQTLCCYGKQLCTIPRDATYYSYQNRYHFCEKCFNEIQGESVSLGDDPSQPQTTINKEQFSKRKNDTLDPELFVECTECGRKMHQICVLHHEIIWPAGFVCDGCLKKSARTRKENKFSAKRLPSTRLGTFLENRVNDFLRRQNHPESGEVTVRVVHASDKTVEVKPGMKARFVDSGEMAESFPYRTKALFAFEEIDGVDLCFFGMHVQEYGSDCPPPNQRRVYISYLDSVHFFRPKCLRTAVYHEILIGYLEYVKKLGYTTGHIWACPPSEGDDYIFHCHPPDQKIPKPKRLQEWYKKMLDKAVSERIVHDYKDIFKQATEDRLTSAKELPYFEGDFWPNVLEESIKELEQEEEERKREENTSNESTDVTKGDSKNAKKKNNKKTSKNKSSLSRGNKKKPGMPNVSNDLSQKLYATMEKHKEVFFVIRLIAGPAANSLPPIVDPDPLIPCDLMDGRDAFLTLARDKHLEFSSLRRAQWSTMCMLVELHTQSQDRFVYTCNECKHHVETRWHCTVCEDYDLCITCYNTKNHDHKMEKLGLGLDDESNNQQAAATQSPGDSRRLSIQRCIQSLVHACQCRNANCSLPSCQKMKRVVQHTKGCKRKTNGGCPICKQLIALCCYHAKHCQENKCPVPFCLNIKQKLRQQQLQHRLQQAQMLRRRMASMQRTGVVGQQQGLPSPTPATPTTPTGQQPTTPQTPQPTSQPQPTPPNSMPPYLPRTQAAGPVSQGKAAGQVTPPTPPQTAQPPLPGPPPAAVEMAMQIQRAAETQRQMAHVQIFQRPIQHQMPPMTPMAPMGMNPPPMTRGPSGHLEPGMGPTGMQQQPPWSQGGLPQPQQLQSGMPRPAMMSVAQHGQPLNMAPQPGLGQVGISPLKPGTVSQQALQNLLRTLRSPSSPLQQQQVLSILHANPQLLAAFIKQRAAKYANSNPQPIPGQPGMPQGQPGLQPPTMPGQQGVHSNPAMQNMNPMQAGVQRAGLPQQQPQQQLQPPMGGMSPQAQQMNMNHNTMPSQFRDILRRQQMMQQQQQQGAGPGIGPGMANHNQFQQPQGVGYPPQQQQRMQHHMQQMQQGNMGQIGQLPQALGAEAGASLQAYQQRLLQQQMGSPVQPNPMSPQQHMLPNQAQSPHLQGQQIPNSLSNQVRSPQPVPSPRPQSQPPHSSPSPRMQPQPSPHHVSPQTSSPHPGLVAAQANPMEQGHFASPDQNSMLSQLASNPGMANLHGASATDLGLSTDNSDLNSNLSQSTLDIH

## O=C1C(Cc2ccc(O)cc2)N2C(=O)CCN(C(=O)NCc3ccccc3)C2CN1Cc1cccc2ccccc12 (centres unmarked) [COMPOUND 1]
[1]
  p300 fragments binding to immunoprecipitated β-catenin in presence of excess COMPOUND 1: had no effect
[2]
  Binding of β-catenin to p300 (immunoprecipitation): did not interfere
